This is an account of results in EP0427484B1, “Novel benzoxazolone compounds and the use thereof as microbicides” (ROHM AND HAAS COMPANY, priority 1989, dated 1991).

For one assay, the system named is Botrytis cinerea. The following applies: 25 ppm.
Assay [1] concerns Piricularia oryzae. It counts as cell-based. The following applies: in vitro, dose 25 ppm, relative to untreated check.
Another assay concerns Phytophthora capsici. The following applies: 25 ppm.
In another assay the test system is Xanthomonas campestris. The class given is cell-based. The settings on record: in vitro, dose 25 ppm, relative to untreated check.
Assay [2] relates to Septoria nodorum. The following applies: 25 ppm.
The test system of the next assay is Cochliobolus sativus. The settings on record: 25 ppm.
Another assay has as its system Rhizoctonia solani. The following applies: 25 ppm.
The subject of a further assay is Fusarium roseum. It counts as cell-based. The settings on record: in vitro, dose 25 ppm, relative to untreated check.
The test system of assay [3] is Sacharomyces cereresae (S. cer.) - ATCC 560. In words: MIC test, broth two-fold serial dilution. The class given is cell-based. The settings on record: complete inhibition of growth, read-out: MIC (ppm) for each compound. On the procedure: (§1) Activity against certain bacteria and fungi was determined using a minimum inhibitory concentration (MIC) test, which establishes the minimum concentration of test compound required to achieve complete inhibition of growth of the test organism. An MIC value was obtained using a broth, two-fold serial dilution test performed as follows: […] A volume of the stock solution was dispensed into culture media to give an initial starting test concentration of 500 ppm compound. When the test was ready to be done, each vessel in the dilution series, except the first vessel, contained an equal volume of compound free broth. The first vessel contained twice the volume of broth with the starting concentration of test compound. One half of the broth from the first vessel was transferred to the second vessel. After being mixed, one half the resulting volume was removed from the second vessel and transferred to the third vessel. The entire cycle was repeated sufficiently to give a series of concentrations amounting to 500, 250, 125, 63, 31, 16, 8, and 4 ppm (or 25, 12.5, 6.2, 3.1, 1.6, 0.8, 0.4, 0.2), respectively. Each vessel was then inoculated with a cell suspension of the appropriate test organism. Bacteria were grown in broth and fungi on agar […] for a time and at a temperature appropriate to the species being tested. At the end of the growth period, the bacteria containing broth was vortexed to disperse the cells. In the case of fungi, the spores were harvested by pipetting water onto the slant and dislodging the spores with a sterile loop. The cell/spore suspension was standardized by controlling incubation time, temperature, and the volume of the diluent. The suspension was then used to inoculate the vessels containing the broth compound. The vessels were then incubated at the appropriate temperature. Alter the incubation, the vessels were examined for growth/no growth. The minimum inhibitory concentration (MIC) is defined as the lowest concentration of compound that results in complete inhibition of growth of the test organism. The organisms tested were bacteria Pseudomonas fluorescens (Ps.fl) - ATCC 948, Pseudomonas aeruginosa (Ps.ae) - ATCC 15442, Escherichia Coli (E.coli) - ATCC 11229, and Staphylococcus aureus (S.aur) - ATCC 6538; and fungi Aspergillus niger (A. niger) - ATCC 6275, Penicillium funiculosum (P. fun.) - ATCC 11797, Cladosporium resinae (A. res.) - ATCC 52833, Aureobasidium pullulans (A. pull.) - ATCC 9248, Cloeophyllum trabeuor (G. trab.) - ATCC 11539; and two yeasts Sacharomyces […].) - ATCC 560, and Rhorotorularubra (R. rubra) - ATCC 2503.

Assay [4] relates to Aspergillus niger (A. niger) - ATCC 6275. In words: MIC test, broth two-fold serial dilution. It counts as cell-based. The following applies: ATCC6275, complete inhibition of growth, read-out: MIC (ppm) for each compound. On the procedure:
as §1

In assay [5] the test system is Pseudomonas fluorescens (Ps.fl) - ATCC 948. In words: MIC test, broth two-fold serial dilution. It counts as cell-based. The following applies: ATCC948, complete inhibition of growth, read-out: MIC (ppm) for each compound. How it is done: as §1
Assay [6] relates to Staphylococcus aureus (S.aur) - ATCC 6538. In words: MIC test, broth two-fold serial dilution. The settings on record: ATCC6538, complete inhibition of growth, read-out: MIC (ppm) for each compound. The class given is cell-based. On the procedure: as §1
The subject of assay [7] is Penicillium funiculosum (P. fun.) - ATCC 11797. In words: MIC test, broth two-fold serial dilution. It counts as cell-based. The following applies: Talaromyces funiculosus, ATCC11797, complete inhibition of growth, read-out: MIC (ppm) for each compound. On the procedure: as §1
Assay [8] deals with Rhorotorularubra (R. rubra) - ATCC 2503. In words: MIC test, broth two-fold serial dilution. It counts as cell-based. The following applies: complete inhibition of growth, read-out: MIC (ppm) for each compound. How it is done:
as §1

Assay [9] concerns Cladosporium resinae (A. res.) - ATCC 52833. In words: MIC test, broth two-fold serial dilution. It counts as cell-based. The following applies: Amorphotheca resinae, ATCC52833; Cl.res.; complete inhibition of growth; read-out: MIC (ppm) for each compound. How it is done:
as §1

Assay [10] relates to Cloeophyllum trabeuor (G. trab.) - ATCC 11539. In words: MIC test, broth two-fold serial dilution. The settings on record: complete inhibition of growth, read-out: MIC (ppm) for each compound. The class given is cell-based. On the procedure: as §1
The subject of assay [11] is Pseudomonas aeruginosa (Ps.ae) - ATCC 15442. In words: MIC test, broth two-fold serial dilution. The class given is cell-based. The settings on record: ATCC15442, complete inhibition of growth, read-out: MIC (ppm) for each compound. How it is done:
as §1

Assay [12] concerns Aureobasidium pullulans (A. pull.) - ATCC 9248. In words: MIC test, broth two-fold serial dilution. The class given is cell-based. The following applies: ATCC9248, complete inhibition of growth, read-out: MIC (ppm) for each compound. On the procedure:
as §1

The subject of assay [13] is Escherichia Coli (E.coli) - ATCC 11229. In words: MIC test, broth two-fold serial dilution. The class given is cell-based. The settings on record: ATCC11229, complete inhibition of growth, read-out: MIC (ppm) for each compound. How it is done:
as §1

Another assay concerns Pythium ultimum. The following applies: 25 ppm.
Assay [14] concerns Piricularia oryzae. The class given is in vivo. The following applies: Nato rice plants, sprayed at 200 ppm before inoculation, seven to eight days after inoculation.
For assay [15], the system named is Puccinia recondita (f. sp. tritici Races PKB and PLD). In words: In vivo plant disease control test, wheat leaf rust (WLR). The settings on record: Fielder wheat, 200 ppm, scored after 10 days.
For assay [16], the system named is Septoria nodorum. In words: In vivo plant disease control test, wheat glume blotch (WGB).
Assay [17] has as its system Pseudoperonospora cubensis. In words: In vivo plant disease control test, cucumber downy mildew (CDM).
The subject of the next assay is Phytophthora infestans. The class given is in vivo. The following applies: Pixie tomato plants, sprayed at 200 ppm before inoculation, four days after inoculation.
Assay [18] has as its system Erysiphe graminis (f. sp. tritici). In words: In vivo plant disease control test, wheat powdery mildew (WPM).

In brackets after ≈: the same amount, converted by molar mass. Some results are limits rather than exact numbers.

In general, MIC refers to the least concentration at which growth counts as inhibited. As to `O=c1oc2cc(Cl)ccc2n1CC#CI` [Y=6-Cl, X=I, 3-(3-iodopropargyl)-6-chloro-2-benzoxazolone], the “% DISEASE CONTROL BOC” value in the assay on Botrytis cinerea was found to be 100%. In addition, the “% DISEASE CONTROL PIR” value with Piricularia oryzae [1] was determined as 100%. In the assay with Phytophthora capsici, the “% DISEASE CONTROL PHY” value amounted to 100%. The “% DISEASE CONTROL XAN” value with Xanthomonas campestris came out at 0%. Moreover, the “% DISEASE CONTROL SEP” value with Septoria nodorum [2] is reported as 100%. Besides, in the assay on Cochliobolus sativus, the “% DISEASE CONTROL HEL” value is recorded as 100%. In addition, the “% DISEASE CONTROL RMI” value in the assay with Rhizoctonia solani was found to be 100%. The “% DISEASE CONTROL FUS” value in the assay with Fusarium roseum was found to be 100%. Moreover, the MIC is at most 5 µg/mL in assay [3]; under 0.13 µg/mL in assay [4]; 16 µg/mL (≈ 48 µM) in [5]; 16 µg/mL (≈ 48 µM) in [6]; at most 1 µg/mL in assay [7]; at most 1 µg/mL in assay [8]. For the same compound, the MIC in [9] was at most 1 µg/mL; in assay [10], at most 1 µg/mL; in assay [11] it was over 250 µg/mL; in assay [12], at most 1 µg/mL; in assay [13], over 250 µg/mL. Besides, the “% DISEASE CONTROL PRU” value in the assay with Pythium ultimum turned out to be 95%.
For `O=c1oc2ccccc2n1CC#CBr` [Y=H, X=Br, 3-(3-bromopropargyl)-2-benzoxazolone], the MIC in [3] was over 25 µg/mL; in assay [4], over 25 µg/mL; in [5], over 250 µg/mL; in [6] it was over 250 µg/mL; in assay [7] it was over 25 µg/mL; in [8], over 25 µg/mL. Moreover, the MIC in assay [9] was over 25 µg/mL; in assay [10], over 25 µg/mL; in assay [11] it was over 250 µg/mL; in assay [12], over 25 µg/mL; in assay [13], over 250 µg/mL.
As to `O=c1oc2cc(Cl)ccc2n1CC#CBr` [Y=6-Cl, X=Br, 3-(3-bromopropargyl)-6-chloro-2-benzoxazolone], the “% DISEASE CONTROL BOC” value in the assay with Botrytis cinerea came to 50%. In addition, the “% DISEASE CONTROL PIR” value in the assay on Piricularia oryzae [1] worked out at 0%. For the same compound, in the assay on Phytophthora capsici, the “% DISEASE CONTROL PHY” value amounted to 0%. Moreover, the “% DISEASE CONTROL XAN” value with Xanthomonas campestris is 0%. Besides, the “% DISEASE CONTROL SEP” value in the assay on Septoria nodorum [2] came to 0%. Moreover, in the assay with Cochliobolus sativus, the “% DISEASE CONTROL HEL” value is 50%. The “% DISEASE CONTROL RMI” value with Rhizoctonia solani is 0%. Further, the “% DISEASE CONTROL FUS” value in the assay on Fusarium roseum is listed as 0%. The MIC in [3] was over 25 µg/mL; in [4] it was 32 µg/mL (≈ 112 µM); in assay [5], over 250 µg/mL; in [6], over 250 µg/mL; in [7], over 25 µg/mL; in [8] it was over 25 µg/mL. Further, the MIC in assay [9] is over 25 µg/mL; in assay [10], over 25 µg/mL; in assay [11], over 250 µg/mL; in [12] it was 32 µg/mL (≈ 112 µM); in assay [13] it was over 250 µg/mL. In addition, the “% DISEASE CONTROL PRU” value in the assay on Pythium ultimum was found to be 50%.
For `O=c1oc2ccccc2n1CC#CI` [Y=H, X=I, 3-(3-iodopropargyl)-2-benzoxazolone], the “% DISEASE CONTROL BOC” value in the assay on Botrytis cinerea is on record as 100%. Further, in the assay with Piricularia oryzae [14], the “% DISEASE CONTROL RB” value came out at 95%. For the same compound, in assay [15], the “% DISEASE CONTROL WLR” value came out at 90%. In addition, the “% DISEASE CONTROL PIR” value in the assay with Piricularia oryzae [1] was found to be 100%. The “% DISEASE CONTROL PHY” value in the assay on Phytophthora capsici worked out at 100%. Moreover, the “% DISEASE CONTROL XAN” value in the assay on Xanthomonas campestris turned out to be 0%. Further, the “% DISEASE CONTROL SEP” value in the assay with Septoria nodorum [2] came to 100%. In addition, the “% DISEASE CONTROL WGB” value in the assay on Septoria nodorum [16] is reported as 0%. Further, the “% DISEASE CONTROL HEL” value with Cochliobolus sativus worked out at 100%. Further, the “% DISEASE CONTROL CDM” value in assay [17] is recorded as 50%. Also, the “% DISEASE CONTROL RMI” value in the assay on Rhizoctonia solani is on record as 95%. Besides, the “% DISEASE CONTROL FUS” value in the assay with Fusarium roseum was determined as 100%. The “% DISEASE CONTROL TLB” value in the assay with Phytophthora infestans was found to be 0%. The MIC in assay [3] was at most 1 µg/mL; in assay [4], under 0.13 µg/mL; in assay [5] it was over 250 µg/mL; in assay [6], over 250 µg/mL; in assay [7], at most 1 µg/mL; in [8] it was at most 1 µg/mL. Besides, the minimum inhibitory concentration (MIC) in assay [9] is at most 5 µg/mL; in assay [10], at most 0.2 µg/mL; in assay [11], over 250 µg/mL; in assay [12], 0.25 µg/mL (≈ 0.836 µM); in assay [13], over 250 µg/mL. Also, the “% DISEASE CONTROL PRU” value in the assay on Pythium ultimum is reported as 100%. In addition, the “% DISEASE CONTROL WPM” value in [18] came out at 90%.
